Results published in article PMC5062570 (Nature Communications, 2016).
Entries after “also recorded” stand apart in the source; their conditions may differ. Like-named read-outs stand apart in the source and are kept apart here.

Legend:
[1] = system: retinal pigment epithelium (RPE); test: Ocular toxicity, retinal histology in wild-type and BACE1 knockout mice; details: 80 mg kg-1 daily; for WT ocular toxicity incidence (positive or negative animals / total evaluated) / WT ocular toxicity outcome: wild-type mice
Description: All experiments and procedures involving animals were conducted as per the established guidelines and protocols that were reviewed and approved by the Pfizer Institutional Animal Care and Use Committee. […] Animals were housed at an Association for Assessment and Accreditation of Laboratory Animal Care International accredited facility in species-specific housing. Sample number was adequately powered for exploratory toxicology studies based on consistent internal practice. Clinically acceptable animals were selected for exploratory toxicology studies and assigned to groups using a computer-assisted randomization procedure based on body weights. For the fluorescent microscopic evaluation of the eyes, animals from the control group were initially evaluated in an unblinded fashion to provide the investigator an understanding of the baseline amount of autofluorescence typical for vehicle-treated animals in the study. A subsequent blinded evaluation of all animals in the study including controls was then performed to identify individuals that were outside the normal range established by the initial unblinded control group review.
After fixation for a minimum of 2 days, each eye was sectioned in half along the mid-sagittal plane with one half being embedded cut side down in a paraffin wax block and the other half returned to fixative. Paraffin blocks were sectioned at 4–5 μm using a microtome and the resulting sections were placed on glass slides, stained with H&E and coverslipped.

purified CatD = target: T1, purified CatD (Homo sapiens, UniProt P07339); test: PF-7802 labelling of purified CatD (probe-based competition); format: binding; details: 250 nM purified human mature CatD, NaOAc pH 4.5, PF-7802 100 nM
T1 construct: final maturation into a non-covalently associated heavy chain and light chain; purchased Sigma C8696; host or cells: human liver
T1 sequence (P07339 65-162 limits assumed): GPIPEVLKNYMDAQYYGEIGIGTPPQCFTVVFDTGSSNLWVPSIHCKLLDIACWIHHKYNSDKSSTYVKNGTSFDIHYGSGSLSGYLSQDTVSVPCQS
T1 sequence (P07339 169-412 limits assumed): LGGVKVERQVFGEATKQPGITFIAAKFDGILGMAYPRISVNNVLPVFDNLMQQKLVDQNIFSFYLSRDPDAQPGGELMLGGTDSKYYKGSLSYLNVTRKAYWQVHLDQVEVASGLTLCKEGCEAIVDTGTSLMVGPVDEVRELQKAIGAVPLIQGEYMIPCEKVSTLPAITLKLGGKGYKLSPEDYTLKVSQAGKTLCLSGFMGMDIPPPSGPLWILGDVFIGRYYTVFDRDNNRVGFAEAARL
Description: Purified CatD (Sigma C8696, isolated from human liver) or proCatD (R&D systems 1014-AS) was reconstituted and diluted to 250 nM in NaOAc buffer (50 mM, pH 4.5, 0.0001% Tween-20). […] Samples were analysed by in-gel fluorescence scanning and western blot with an α-CatD antibody (R&D Systems AF-1014) as described above for CatD knockdown.

BACE2 = details: purified aspartyl proteases; not previously disclosed
CatE = details: purified aspartyl proteases; not previously disclosed
[2] = Plasma exposure (average unbound plasma concentration) in dogs; format: in vivo; details: both sexes, beagle, oral, dog, read-out: Avg Cp,u parent
Description: Naive […] beagle dogs (Canis lupus familiaris, >8 months old, n=1 male and n=1 female per group) received daily oral dosing of test compounds or vehicle for 14 days at the indicated concentrations. The doses were prepared in a solution of 0.5% methylcellulose and hydroxypropyl methylcellulose acetate succinate (high fine grade) and delivered in a volume of 5 ml kg^−1 per day. Blood samples for bioanalytical analysis were collected in K2EDTA tubes via jugular vessel. Plasma was isolated after centrifugation and stored at –20 °C before analysis. Animals were killed via intravenous administration of barbiturate followed by exsanguination ∼3 h after the final dose on day 15.
Plasma samples were analysed after protein precipitation by treating 20 μl of sample matrix with 200 μl of acetonitrile containing internal standard. All samples were centrifuged at 3,000 r.p.m. for 5 min. Then 100 μl of supernatant was transferred to a clean plate and evaporated to dryness under N2. Samples were reconstituted in 200 μl of 80:20 (v:v) acetonitrile:water. Samples were analysed on Waters Acquity UPLC connected to AB Sciex API5500 QTrap MS/MS.
Plasma protein binding was determined in the Rapid Equilibrium Device (RED, Thermo Scientific). […] Samples were protein-precipitated with acetonitrile containing internal standard, and the resulting supernatant was analysed by LC-MS/MS.

For `Cc1cc([C@H]2C[C@H]3[C@@H](C)SC(N)=N[C@@]3(c3ccc(F)cc3F)CO2)on1` [PF-9283], the “BACE1(-/-) ocular toxicity incidence (positive or negative animals / total evaluated)” value ([1]; BACE1(-/-) mice, 14 days) was 4/5, the “BACE1(-/-) ocular toxicity outcome” value ([1]; BACE1(-/-) mice, 14 days) was “Pos” and the “Retinal finding by fluorescence microscopy” value ([1]; BACE1(-/-) mice, 14 days) was “accumulated autofluorescent granules were observed”. The “BACE1(-/-) ocular toxicity incidence (positive or negative animals / total evaluated)” value ([1]; BACE1(-/-) mice, 30 days) was 6/6, the “BACE1(-/-) ocular toxicity outcome” value ([1]; BACE1(-/-) mice, 30 days) was “Pos” and the “WT ocular toxicity incidence (positive or negative animals / total evaluated)” value ([1]; 2 days) was 5/5. For the same compound, the “WT ocular toxicity outcome” value ([1]; 2 days) was “Neg”, the “WT ocular toxicity incidence (positive or negative animals / total evaluated)” value ([1]; 4 days) was 1/5 and the “WT ocular toxicity outcome” value ([1]; 4 days) was “Pos”. For the same compound, the “WT ocular toxicity incidence (positive or negative animals / total evaluated)” value ([1]; 7 days) was 6/6, the “WT ocular toxicity outcome” value ([1]; 7 days) was “Pos” and the “WT ocular toxicity incidence (positive or negative animals / total evaluated)” value ([1]; 14 days) was 5/5. For the same compound, the “WT ocular toxicity outcome” value ([1]; 14 days) was “Pos”, the “WT ocular toxicity incidence (positive or negative animals / total evaluated)” value ([1]; 30 days) was 6/6 and the “WT ocular toxicity outcome” value ([1]; 30 days) was “Pos”. The “Competition of PF-7802 labelling of purified mature CatD” value (purified CatD) was “competed by pretreatment with PF-9283 in a concentration-dependent manner; also recorded: concentration-dependently competed”, the “Fold selectivity for BACE1 over BACE2” value (BACE2) was 1.9 fold and the “Fold selectivity for BACE1 over CatE” value (CatE) was 320 fold. It also gave a concentration at 14 days ([2]; 3 mg kg-1 once daily) of 32 nM and a concentration at 14 days ([2]; 9 mg kg-1 once daily) of 401 nM.
